# Measurements from patent US7550469B2, “Heterocyclic amide derivatives and their use as dopamine D3 receptor ligands” (Aventis Pharmaceuticals Inc., priority 2001, dated 2009).
# Biological target: T1, cloned human dopamine D3 receptors (Homo sapiens, UniProt P35462)
# T1 construct: expressed in transfected cells; membrane homogenate
# Assay: [N-Methyl-3H]Spiroperidol binding to cloned human dopamine D3 receptors (Protocol 1)
# Settings: Table 2; read-out: D3K1
# Procedure, shortened: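 Membranes from CHO cells stably expressing cloned human D3 receptor were used for [N-methyl-3H]spiroperidol (60-90 Ci/mmol) binding. Assay buffer was 0.05 M Tris HCl pH 7.7 with 120 mM NaCl, 5 mM KCl, 2 mM CaCl2 and 1 mM MgCl2, optionally 0.1% ascorbic acid; total ligand concentration calculated from added CPM.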
# T1 sequence (P35462 whole entry): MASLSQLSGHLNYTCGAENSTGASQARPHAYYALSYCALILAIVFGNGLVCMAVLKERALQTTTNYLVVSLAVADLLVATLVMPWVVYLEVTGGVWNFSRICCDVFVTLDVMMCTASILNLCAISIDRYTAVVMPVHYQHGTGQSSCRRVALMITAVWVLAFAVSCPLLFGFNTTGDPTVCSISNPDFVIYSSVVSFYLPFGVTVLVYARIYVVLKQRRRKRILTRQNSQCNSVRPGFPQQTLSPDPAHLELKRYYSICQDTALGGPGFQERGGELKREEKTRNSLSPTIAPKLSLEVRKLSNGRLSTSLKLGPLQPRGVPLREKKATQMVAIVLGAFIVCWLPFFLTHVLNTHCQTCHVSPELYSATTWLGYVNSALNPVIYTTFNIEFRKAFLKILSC
row,Ki [nM],Structure (SMILES)
1,245,O=C(NC(CO)CCCN1CCN(c2csc3cc(C(F)(F)F)ccc23)CC1)c1ccc(Cl)cc1 (stereo not shown) [compound 815690]
2,305,Cc1c(C(=O)NCCC(CO)CN2CCN(c3csc4cc(C(F)(F)F)ccc34)CC2)cnn1-c1ccccc1 (stereo not shown) [818634ES]
3,244,O=C(NCC(CO)CCN1CCN(c2csc3cc(C(F)(F)F)ccc23)CC1)c1n[nH]c2ccccc12 (stereo not shown) [818935ES]
4,191,COc1ccc(C(=O)N[C@H](CO)CCCN2CCN(c3csc4cc(C(F)(F)F)ccc34)CC2)cc1 [compound 815692]
5,207,O=C(NCC(CO)CCN1CCN(c2csc3cc(C(F)(F)F)ccc23)CC1)c1cc2ccccc2o1 (stereo not shown) [818932ES]
6,197,O=C(N[C@H](CO)CCCN1CCN(c2csc3cc(C(F)(F)F)ccc23)CC1)c1ccc(-c2ccccc2)cc1 [compound 815694]
7,3.03,CCNc1ccccc1C(=O)NCCCCN1CCCN(c2csc3cc(F)ccc23)CC1 [compound 817267]

# Same assay, conditions: read-out: D3K1
row,Ki [nM],Structure (SMILES)
1,28,O=C(NC/C=C\CN1CCN(c2csc3cc(C(F)(F)F)ccc23)CC1)c1cc2ccccc2s1 [compound 827709]
2,245,O=C(NC(CO)CCCN1CCN(c2csc3cc(C(F)(F)F)ccc23)CC1)c1ccc(Cl)cc1 (stereo not shown) [compound 815690]
3,180,O=C(COCc1ccccc1)NC/C=C\CN1CCN(c2csc3cc(C(F)(F)F)ccc23)CC1 [compound 826349]
4,13.5,O=C(NCCCCN1CCN(c2csc3cc(C(F)(F)F)ccc23)CC1)C1CCCC1 [compound 815559]
5,5.8,O=C(NCCCCN1CCN(c2c(Cl)sc3cc(F)ccc23)CC1)c1ccc(F)cc1F [compound 815053]
6,28.7,COc1ccccc1C(=O)NCCCCN1CCN(c2c(Cl)sc3cc(F)ccc23)CC1 [compound 815066]
7,5.4,CCOc1ccc(C(=O)NCCCCN2CCN(c3c(Cl)sc4cc(F)ccc34)CC2)cc1 [compound 815052]
8,191,COc1ccc(C(=O)N[C@H](CO)CCCN2CCN(c3csc4cc(C(F)(F)F)ccc34)CC2)cc1 [compound 815692]
9,92,O=C(NC/C=C/CN1CCN(c2csc3cc(C(F)(F)F)ccc23)CC1)c1ccc(OC(F)(F)F)cc1 [compound 827726]
10,6.3,O=C(NCCCCN1CCN(c2c(Cl)sc3cc(F)ccc23)CC1)c1ccc(Br)cc1 [compound 815063]
11,61,O=C(NC/C=C\CN1CCN(c2csc3cc(C(F)(F)F)ccc23)CC1)c1ccc(OC(F)(F)F)cc1 [compound 826348]
12,42.1,CC(C)C(=O)NCCCCN1CCN(c2csc3cc(C(F)(F)F)ccc23)CC1 [compound 811700]
13,197,O=C(N[C@H](CO)CCCN1CCN(c2csc3cc(C(F)(F)F)ccc23)CC1)c1ccc(-c2ccccc2)cc1 [compound 815694]
14,77,O=C(CCC1CCCC1)NC/C=C\CN1CCN(c2csc3cc(C(F)(F)F)ccc23)CC1 [compound 826345]
15,73,O=C(NC/C=C\CN1CCN(c2csc3cc(C(F)(F)F)ccc23)CC1)c1cccc(Cl)c1 [compound 826340]
16,120,O=C(COc1ccccc1)NC/C=C/CN1CCN(c2csc3cc(C(F)(F)F)ccc23)CC1 [compound 827725]
17,6.7,Cc1ccccc1C(=O)NCCCCCN1CCN(c2csc3cc(C(F)(F)F)ccc23)CC1 [compound 826771]
18,3.6,O=C(NCCCCN1CCN(c2c(Cl)sc3cc(F)ccc23)CC1)c1ccc([N+](=O)[O-])cc1 [compound 815061]
19,24,O=C(NC/C=C\CN1CCN(c2csc3cc(C(F)(F)F)ccc23)CC1)C1CCC1 [compound 826333]
20,22,CCOc1ccc(C(=O)NCCCCN2CCN(c3c(Cl)sc4cc(C(F)(F)F)ccc34)CC2)cc1 [compound 815560]

# Same assay, conditions: the 13th table, unit inferred; read-out: D3Ki
row,Ki [nM],Structure (SMILES)
1,8.44,CS(=O)(=O)c1sc(C(=O)NCCCCCN2CCCN(c3csc4cc(F)ccc34)CC2)c2c1CCC=C2 [S984496]
2,40.9,O=C(Cc1ccc(C(F)(F)F)cc1)NCCCCN1CCCN(c2csc3cc(F)ccc23)CC1 [S982508]
3,6.3,O=C(NCCCCN1CCCN(c2csc3cc(F)ccc23)CC1)c1ccc(Cl)cc1 [compound 822150]
4,136,O=C(NCCCCN1CCC(c2noc3ccsc23)CC1)c1ccc(Cl)cc1 [compound 815151]
5,26.2,O=C(NCCCCCN1CCCN(c2csc3cc(F)ccc23)CC1)c1cccc2cc[nH]c12 [S984495]
6,43,COc1cccc(C(=O)NCCCCN2CCCN(c3csc4cc(C(F)(F)F)ccc34)CC2)c1 [S980640]
7,71,O=C(NCCCCN1CCCN(c2csc3cc(C(F)(F)F)ccc23)CC1)c1cccc(F)c1 [S980635]
8,218,O=C(NCCCCCN1CCC(c2noc3ccsc23)CC1)C(Cl)c1ccccc1 (stereo not shown) [compound 816204]
9,3.96,O=C(NCCCCN1CCCN(c2csc3cc(F)ccc23)CC1)c1cccc2[nH]ccc12 [S977823]
10,23,O=C(NCCCCN1CCCN(c2csc3cc(C(F)(F)F)ccc23)CC1)c1ccc2ccccc2c1 [S980632]
11,455,O=C(NCCCCCN1CCC(c2noc3ccsc23)CC1)C1CCCC1 [compound 816205]
12,17.1,O=C(NCCCCCN1CCCN(c2csc3cc(F)ccc23)CC1)c1cc2ccccc2[nH]1 [S984504]
13,35,Cn1c(C(=O)NCCCCN2CCCN(c3csc4cc(C(F)(F)F)ccc34)CC2)cc2ccccc21 [S980648]
14,10.2,Cc1nn(C)c2sc(C(=O)NCCCCCN3CCCN(c4csc5cc(F)ccc45)CC3)cc12 [S984503]

# Same assay, conditions: the 14th table; read-out: D3 Ki
row,Ki [nM],Structure (SMILES)
1,245,O=C(NC(CO)CCCN1CCN(c2csc3cc(C(F)(F)F)ccc23)CC1)c1ccc(Cl)cc1 (stereo not shown) [compound 815690]
2,4.46,O=C(NCCCCCN1CCN(c2csc3cc(F)ccc23)CC1)c1cccc(C(F)(F)F)c1 [compound 826780]
3,8.25,O=C(NCCCCCN1CCN(c2csc3cc(F)ccc23)CC1)c1cccs1 [compound 826774]
4,191,COc1ccc(C(=O)N[C@H](CO)CCCN2CCN(c3csc4cc(C(F)(F)F)ccc34)CC2)cc1 [compound 815692]
5,197,O=C(N[C@H](CO)CCCN1CCN(c2csc3cc(C(F)(F)F)ccc23)CC1)c1ccc(-c2ccccc2)cc1 [compound 815694]
6,6.7,Cc1ccccc1C(=O)NCCCCCN1CCN(c2csc3cc(C(F)(F)F)ccc23)CC1 [compound 826771]

# Same assay, conditions: the 15th table; read-out: D3 Ki
row,Structure (SMILES),Ki [nM]
1,O=C(NCCCCN1C2CCC1CC(c1noc3cc(F)ccc13)C2)c1ccc(C(F)(F)F)cc1 (stereo not shown) [compound 816326],223
2,O=C(NCCCCN1C2CCC1CC(c1noc3ccccc13)C2)c1ccccc1C(F)(F)F (stereo not shown) [compound 816522],240
3,O=C(NCCCCN1C2CCC1CC(c1noc3cc(F)ccc13)C2)c1ccc(F)cc1 (stereo not shown) [compound 816333],474
4,O=C(NCCCCN1C2CCC1CC(c1noc3ccccc13)C2)c1cccc2ccccc12 (stereo not shown) [compound 816538],178
5,O=C(NCCCCN1C2CCC1CC(c1noc3cc(F)ccc13)C2)c1ccc(Br)cc1 (stereo not shown) [compound 816335],268
6,O=C(NCCCCN1C2CCC1CC(c1noc3ccccc13)C2)c1ccc(-c2ccccc2)cc1 (stereo not shown) [compound 816532],56.8

# Same assay, conditions: the 16th table; read-out: D3 Ki
row,Ki [nM],Structure (SMILES)
1,3.03,CCNc1ccccc1C(=O)NCCCCN1CCCN(c2csc3cc(F)ccc23)CC1 [compound 817267]

# Same assay, conditions: the 18th table; read-out: D3 Ki
row,Ki [nM],Structure (SMILES)
1,59,O=C(NCc1sccc1CN1CCN(c2csc3cc(F)ccc23)CC1)c1ccc(OC(F)(F)F)cc1 [compound 826298]
2,90,O=C(NCc1sccc1CN1CCN(c2csc3cc(F)ccc23)CC1)c1sccc1-n1cccc1 [compound 826318]
3,78.7,O=C(NCc1sccc1CN1CCN(c2csc3cc(F)ccc23)CC1)c1cc2ccccc2s1 [818321G]
4,120,Cn1c(C(=O)NCc2sccc2CN2CCN(c3csc4cc(F)ccc34)CC2)cc2ccccc21 [compound 826324]

# Same assay, conditions: the 19th table; read-out: D3 Ki
row,Ki [nM],Structure (SMILES)
1,380,O=C(Nc1cccc(CN2CCN(c3csc4cc(F)ccc34)CC2)c1)c1ccc(OC(F)(F)F)cc1 [compound 822162]
2,221,O=C(Nc1ccc(CN2CCN(c3csc4cc(F)ccc34)CC2)cc1)c1ccccc1F [compound 822207]

# Same assay, conditions: the 20th table; read-out: D3 Ki
row,Ki [nM],Structure (SMILES)
1,532,COc1ccccc1C(=O)NCc1ccoc1CN1CCN(c2csc3cc(F)ccc23)CC1 [compound 825842]
2,601,O=C(NCc1ccoc1CN1CCN(c2csc3cc(F)ccc23)CC1)c1cc2ccccc2s1 [compound 825844]
3,250,O=C(NCc1ccoc1CN1CCN(c2csc3cc(F)ccc23)CC1)c1ccc(-c2ccccc2)cc1 [compound 825848]

# Same assay, conditions: the 21st table; read-out: D3 Ki
row,Ki [nM],Structure (SMILES)
1,29.5,C[C@@H]1CN(c2csc3cc(F)ccc23)C[C@H](C)N1CCCCNC(=O)c1ccc2ccccc2c1 [compound 827051]
2,12.7,C[C@@H]1CN(c2csc3cc(F)ccc23)C[C@H](C)N1CCCCNC(=O)c1ccc(-c2ccccc2)cc1 [compound 826943]
3,384,COc1cccc(C(=O)NCCCCN2[C@H](C)CN(c3csc4cc(C(F)(F)F)ccc34)C[C@@H]2C)c1 [compound 826932]
4,43.5,C[C@@H]1CN(c2csc3cc(F)ccc23)C[C@H](C)N1CCCCNC(=O)c1cc2ccccc2s1 [compound 827054]
5,51.2,C[C@@H]1CN(c2csc3cc(F)ccc23)C[C@H](C)N1CCCCNC(=O)c1cc2ccccc2n1C [compound 826961]
6,133,C[C@@H]1CN(c2csc3cc(F)ccc23)C[C@H](C)N1CCCCNC(=O)c1cnc2ccccc2n1 [compound 826945]
7,25.6,C[C@@H]1CN(c2csc3cc(F)ccc23)C[C@H](C)N1CCCCNC(=O)c1ccc2cc[nH]c2c1 [compound 826965]
8,51.2,C[C@@H]1CN(c2csc3cc(F)ccc23)C[C@H](C)N1CCCCNC(=O)c1cc2ccccc2o1 [compound 827036]
9,32.2,C[C@@H]1CN(c2csc3cc(F)ccc23)C[C@H](C)N1CCCCNC(=O)c1ccc2[nH]ccc2c1 [compound 826964]
10,217,C[C@@H]1CN(c2csc3cc(C(F)(F)F)ccc23)C[C@H](C)N1CCCCNC(=O)c1ccc(F)cc1 [compound 826929]
11,153,C[C@@H]1CN(c2csc3cc(F)ccc23)C[C@H](C)N1CCCCNC(=O)c1cccc(C(F)(F)F)c1 [compound 827052]
12,47.6,C[C@@H]1CN(c2csc3cc(F)ccc23)C[C@H](C)N1CCCCNC(=O)c1ccncc1 [compound 826947]

# Same assay, conditions: the 22nd table; read-out: D3 Ki
row,Ki [nM],Structure (SMILES)
1,18.9,O=C(NCCCCN1CCN(c2noc3ccsc23)CC1)c1cc2ccccc2[nH]1 [compound 829682]
2,275,O=C(NCCCCN1CCN(c2noc3ccsc23)CC1)c1cc(Cl)cc(Cl)c1 [compound 829678]

# Same assay, conditions: the 23rd table; read-out: D3 Ki
row,Ki [nM],Structure (SMILES)
1,30.3,CC(C)CCNC[C@@H]1C[C@H]1CN1CCN(c2csc3cc(C(F)(F)F)ccc23)CC1 [compound 832276]
2,12,CC[C@H]1CC[C@H](NC[C@@H]2C[C@H]2CN2CCN(c3ccccc3C)CC2)CC1 [compound 831876]
